What was measured:
CUCRC047 CRC PDTX model = assay: Patient derived tumor xenograft efficacy, CUCRC047; assay type: in vivo, mice; settings: 25 mg/kg orally twice daily, 22–56 days, end of study tumor volumes
Description: (§1) For patient tumor xenografts, surgical specimens of patients undergoing either removal of a primary or metastatic tumor at the University of Colorado Hospital are implanted subcutaneously into five mice for each patient with a 10-G trochar. After a subsequent growth and passage in mice, tumors are excised, and expanded into cohorts for treatment (n = 6–15 per group). Mice were treated with PF-309 or vehicle (0.5% methylcellulose) for 22–56 days (until control tumor volume reach ∼1500 mm^3) twice daily (BID) by oral gavage (PO). Monitoring of mice and measurements of tumors were conducted as described above. % Growth Inhibition= (average control volume−average treated volume)/average control volume×100% In addition to the cell line xenografts, we also treated 12 different patient derived tumor xenograft (PDTX) CRC models with PF-309 (Figure 6). We were unable to assess how ABCB1 gene expression correlated with efficacy in these models. The PDTX models are propagated in vivo, are not immortalized, and are not grown in in vitro culture. […] Tumor and plasma sample pairs were collected from animals at the end of study for eight tumor models (three cell line xenografts and five PDTX models) and concentrations of PF-309 were measured. […]

[1] = test system: SW480 cell line xenograft; assay: CRC cell line xenograft efficacy, SW480; assay type: in vivo, mice; settings: 25 mg/kg orally twice daily, 14–28 days, end of study tumor volumes
Description: For cell line xenografts, CRC cells were harvested in exponential phase growth and resuspended in a 1:1 mixture of serum-free RPMI 1640 and Matrigel (BD Biosciences). Five to ten million cells per mouse were injected subcutaneously into the flank using a 23-gauge needle. Mice were monitored daily for signs of toxicity and were weighed twice weekly. Tumor size was evaluated twice per week by caliper measurements using the following formula: tumor volume = length × width^2 × 0.52. When tumors reached 200–300 mm^3 mice were randomized into two groups with at least 10 tumors per group. Mice were then treated for 14–28 days (until control tumor volume reach ∼1500 mm^3) with either vehicle control (0.5% methylcellulose), or PF-3758309 (25 mg/kg) twice daily by oral gavage.
Human tumor xenograft models were used to evaluate the efficacy of PF-309 in vivo. Eleven different CRC cell line tumor xenografts were treated with 25 mg/kg PF-309 twice daily by oral gavage for 14–28 days (until control tumor volumes reached ∼1500 mm^3). Tumor volumes were measured throughout the study and the % growth inhibition was calculated from the average end of study tumor volumes by:
% Growth Inhibition= (average control volume−average treated volume)/average control volume×100%

GEO = assay: Cell proliferation assay, GEO; assay type: cell-based; settings: Homo sapiens, 72 h, SRB assay
Description: (§2) Cytotoxic/proliferation effects were determined using the sulforhodamine B (SRB) assay (Skehan et al., [1990]) or by resazurin. Briefly, cells in logarithmic growth phase were transferred to 96 well flat bottom plates with lids. One-hundred microliter cell suspensions containing 1500–5000 viable cells were plated into each well and incubated overnight prior to exposure with increasing concentrations of PF-309 for 3–5 days, dependent upon cell type. Media was removed and cells were fixed with cold 10% trichloroacetic acid for 30 min at 4°C. Cells were then washed with water and stained with 0.4% SRB (Fisher Sci., Pittsburgh, PA, USA) for 30 min at room temperature, washed again with 1% acetic acid, followed by stain solubilization with 10 mM tris at room temperature. The plate was then read on a plate reader (Biotek Synergy 2, Winooski, VT, USA) set at an absorbance wavelength of 565 nm. Cell proliferation curves were derived from the raw absorbance (OD) data.
(§3) Since PF-309 appeared to be a strong P-gp and BCRP substrates, we sought to evaluate if the transporters influenced sensitivity in vitro. We evaluated the sensitivity of CRC cell lines to PF-309 treatment in a panel of 27 lines. Cells were exposed to PF-309 at a range of concentrations for 72 h and cell content measured by SRB assay (see Pitts et al., [2013]). […]

SW948 = assay: Cell proliferation assay, SW948; assay type: cell-based; settings: Homo sapiens; SW948, 72 h, SRB assay
Description: as §2, §3

CUCRC042 CRC PDTX model = assay: Patient derived tumor xenograft efficacy, CUCRC042; assay type: in vivo, mice; settings: 25 mg/kg orally twice daily, 22–56 days, end of study tumor volumes
Description: as §1

CRC cell lines = assay: Proliferation assays with and without P-gp inhibitor CP-100356, subset of CRC cell lines; assay type: cell-based, human; settings: 0.625 μM CP-100356; five out of the six CRC cell lines
Description: Cytotoxic/proliferation effects were determined using the sulforhodamine B (SRB) assay (Skehan et al., [1990]) or by resazurin. Briefly, cells in logarithmic growth phase were transferred to 96 well flat bottom plates with lids. […] Media was removed and cells were fixed with cold 10% trichloroacetic acid for 30 min at 4°C. Cells were then washed with water and stained with 0.4% SRB (Fisher Sci., Pittsburgh, PA, USA) for 30 min at room temperature, washed again with 1% acetic acid, followed by stain solubilization with 10 mM tris at room temperature. The plate was then read on a plate reader (Biotek Synergy 2, Winooski, VT, USA) set at an absorbance wavelength of 565 nm. Cell proliferation curves were derived from the raw absorbance (OD) data.

[2] = End of study tumor and plasma concentrations (LC/MS/MS); assay type: in vivo; settings: mice, trough (6–8 h)
SW620 = assay: Cell proliferation assay, SW620; assay type: cell-based; settings: Homo sapiens, SW-620; SW620, 72 h, SRB assay
Description: as §2, §3

HCT116 = assay: Cell proliferation assay, HCT116; assay type: cell-based; settings: Homo sapiens, HCT-116; HCT116, 72 h, SRB assay
Description: as §2, §3

HT29 = assay: Cell proliferation assay, HT29; assay type: cell-based; settings: Homo sapiens, HT-29; HT29, 72 h, SRB assay
Description: as §2, §3

IC50 (SW948): > 1000 nM
total plasma concentrations at the trough [2]: 1 to 10 nM
IC50 (SW620): 5 ± 3.1 nM
IC50 (HCT116): 4.7 ± 0.9 nM
IC50 (HT29): > 1000 nM
Compound: Cc1nc(Nc2n[nH]c3c2CN(C(=O)N[C@H](CN(C)C)c2ccccc2)C3(C)C)c2sccc2n1 [PF-309]
% Growth inhibition (CUCRC047 CRC PDTX model): −24%
% Growth inhibition [1]: 42%
IC50 (GEO): > 1000 nM
% Growth inhibition (CUCRC042 CRC PDTX model): 52%
fold change in the IC50 of PF-309 caused by CP-100356 (CRC cell lines): 4–100 fold
